The values below come from ChEMBL document CHEMBL5344440, “Fragment Merging, Growing, and Linking Identify New Trypanothione Reductase Inhibitors for Leishmaniasis” (J Med Chem, 2024).

In data set [1] the target is Trypanothione reductase (Leishmania infantum) (UniProt A4HSF7). Nature of the data set: Inhibition of Leishmania infantum Trypanothione reductase expressed in Escherichia coli BL21 (DE3) assessed as enzyme residual activity using trypanothione as substrate at 100 uM preincubated for 3 mins followed NADPH addition by spectrophotometric analysis.
Trypanothione reductase (Leishmania infantum), sequence (A4HSF7 as listed by the source): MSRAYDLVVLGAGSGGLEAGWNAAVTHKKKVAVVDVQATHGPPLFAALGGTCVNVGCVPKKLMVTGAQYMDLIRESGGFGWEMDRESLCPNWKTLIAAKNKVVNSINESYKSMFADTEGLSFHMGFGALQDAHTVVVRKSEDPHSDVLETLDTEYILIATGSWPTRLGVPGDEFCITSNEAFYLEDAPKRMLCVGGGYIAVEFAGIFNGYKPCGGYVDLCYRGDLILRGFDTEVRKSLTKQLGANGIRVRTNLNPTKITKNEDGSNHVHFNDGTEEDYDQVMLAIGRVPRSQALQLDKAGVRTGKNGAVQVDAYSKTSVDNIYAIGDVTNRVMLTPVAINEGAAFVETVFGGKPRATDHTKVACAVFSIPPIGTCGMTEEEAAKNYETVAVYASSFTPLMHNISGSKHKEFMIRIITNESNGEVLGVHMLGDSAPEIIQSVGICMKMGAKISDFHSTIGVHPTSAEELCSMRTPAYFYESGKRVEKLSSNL
Data set [2] has as its system Leishmania infantum. Nature of the data set: Antileishmanial activity against amastigote form of Leishmania infantum infected in BALB/c mouse macrophages assessed as reduction in parasite infection at 12.5 uM measured after 72 hrs by Giemsa staining based optical microscopy relative to control. Type of data set: functional.
The test system of another data set is Peritoneal macrophage. Nature of the data set: (§1) Cytotoxicity against BALB/c mouse peritoneal macrophages assessed as reduction in cell viability measured after 72 hrs by MTT assay. Type of data set: toxicity, cell-based. The conditions noted are these: peritoneal macrophage, 72 h. A general note: Formazan colour is commonly taken as a measure of viable cells.

Data set [3] has as its system glutathione reductase versus Leishmania infantum trypanothione reductase. Nature of the data set: Selectivity index, ratio of IC50 for inhibition of human glutathione reductase expressed in Escherichia coli cells to IC50 for inhibition of Leishmania infantum Trypanothione reductase expressed in Escherichia coli BL21 (DE3). Type of data set: toxicity. The settings on record: read-out: Ratio IC50.

Data set [4] can be described thus: Selectivity index, ratio of CC50 for cytotoxicity against human THP-1 cells to EC50 for antileishmanial activity against axenic amastigote form of Leishmania infantum MHOM/TN/80/IPT1. Type of data set: toxicity, cell-based. The settings on record: read-out: Ratio CC50/EC50.
Another data set concerns THP-1. Nature of the data set: (§2) Cytotoxicity against PMA-differentiated human THP-1 cells assessed as reduction in cell viability measured after 72 hrs by MTT assay. The conditions noted are these: thp-1, 72 h. Type of data set: toxicity, cell-based.
Data set [5] is described as follows: as §1. Type of data set: toxicity, cell-based, Peritoneal macrophage. The settings on record: BALB/c, peritoneal macrophages.
Data set [6] has as its system Leishmania infantum. Nature of the data set: Antileishmanial activity against axenic amastigote form of Leishmania infantum MHOM/TN/80/IPT1 assessed as parasite growth inhibition measured after 72 hrs by MTT assay. Type of data set: functional, organism-based. The settings on record: MHOM/TN/80/IPT1, 72 h.
The nature of data set [7]: as §2. Type of data set: toxicity, cell-based. The conditions noted are these: PMA-differentiated THP-1 cells.
The target in data set [8] is Trypanothione reductase (Leishmania infantum) (UniProt A4HSF7). Nature of the data set: Inhibition of Leishmania infantum Trypanothione reductase expressed in Escherichia coli BL21 (DE3) assessed as enzyme residual activity using trypanothione as substrate at 10 uM preincubated for 3 mins followed NADPH addition by spectrophotometric analysis.

As to `O=C(NCCc1ccc(F)cc1)c1ccco1`, the Activity in data set [1] was 85.3%.
As usually defined, the inhibition is the percentage by which the read-out fell short of the control. For `O=C(NCCc1ccc(F)cc1)c1ccc(CNC(=O)N2CC[N+](CCCc3ccccc3)(Cc3ccc(Cl)c(Cl)c3)CC2)o1`, in the data set on Leishmania infantum [2], the inhibition at 12.5 µM came to 40%.
One may read the CC50 as the concentration giving 50% cytotoxicity. For `O=C(NCCc1ccc(F)cc1)c1ccc(CN(C(=O)N2CCN(CCCN3c4ccccc4Sc4ccc(Cl)cc43)CC2)c2ccc(F)cc2)o1`, the CC50 with Peritoneal macrophage came to 9.1 µM; in the data set with THP-1 it was 6.5 µM. Also, the selectivity ratio in data set [3] was 0.4; in [4], 0.5.
In general, EC50 refers to the concentration giving half of the maximal effect. On to `O=C(NCCc1ccc(F)cc1)c1ccc(CN(C(=O)N2CCN(CCCN3c4ccccc4Sc4ccc(C(F)(F)F)cc43)CC2)c2ccc(F)cc2)o1`, for which the values for the CC50 at 72 h in data set [5] and in [7] were 30.7 µM and 23.4 µM, respectively. Also, the selectivity ratio in data set [4] came to 1.8. The EC50 with Leishmania infantum [6] was 13 µM. For the same compound, the Activity in data set [8] was 70.8%.
Consider `O=C(NCCc1ccccc1)c1ccc(CN(C(=O)N2CCN(Cc3ccc(Cl)c(Cl)c3)CC2)c2ccc(F)cc2)o1`, for which the CC50 at 72 h is 14.4 µM in data set [5] and 11.7 µM in data set [7]. For the same compound, the selectivity ratio in data set [4] came out at 1.1. Further, in the data set with Leishmania infantum [6], the EC50 is 10.3 µM. The Activity in [8] was 94.1%.
For the compound `CC(=O)N1CCN(CCCc2ccccc2)CC1`, the Activity in [1] was determined as 77.7%.
For the compound `O=C(O)c1ccc(N(Cc2ccc(C(=O)NCCc3ccc(F)cc3)o2)C(=O)N2CCN(CCCc3ccccc3)CC2)cc1`, the selectivity ratio in data set [4] is greater than 2.
As to `C[C@@H]1[C@H](O)[C@@H](C)/C=C/C=C/C=C/C=C/C=C/C=C/C=C/[C@H](O[C@@H]2O[C@H](C)[C@@H](O)[C@H](N)[C@@H]2O)C[C@@H]2O[C@](O)(C[C@@H](O)C[C@@H](O)[C@H](O)CC[C@@H](O)C[C@@H](O)CC(=O)O[C@H]1C)C[C@H](O)[C@H]2C(=O)O` [AMPHOTERICIN B], in the data set on Leishmania infantum [6], the EC50 turned out to be 0.5 µM.
